Patent publication US20030212088A1, “Methods and compositions for treating, preventing or delaying onset of a neoplasm” (priority 2002, published 2003)
Structures can show the parent of a compound that is named as a salt.

Test system: Mouse serum IGF-1
Experiment: Serum IGF-I radioimmunoassay in CT-26 tumor-bearing mice
Assay type: in vivo, BALB/c mice
Conditions: serum collected at sacrifice (day 24); Pegvisomant 5.0 mg/day s.c.; Irinotecan 100 mg/kg on post-inoculation days 7, 14, 21
Experimental: CT-26 cells (mouse colon carcinoma) are grown in DMEM with 10% fetal bovine serum until the cells are approximately 50% confluent. Trypsin is used to lift adherent cells from the surface of tissue culture flask. The cells are then washed and suspended in Hank's buffered saline solution. BALB/c mice (Jackson Laboratories, Bar Harbor, Me.), 5-8 weeks of age, are used in this example. Initially, the spleen is mobilized using a left flank incision. Direct splenic injections of CT-26 cells is performed (1×10^4 viable cells, 0.05 ml total volume). Wound clips are used to close the incision. This is a syngenic colon cancer model so the host animals are not immunocompromised.
Injections are administered on the flank opposite the side of the wound clips from the splenic injection using a 25-gauge needle on a tuberculin syringe.
Mice are sacrificed on day 24. […] Treatment groups are compared using a standard t-test.
Mouse serum IGF-1 is measured by radioimmunoassay (RIA) after acid-ethanol extraction. Briefly, the serum/extraction mixture is incubated at room temperature for 2 hours, centrifuged, and the supernatant is diluted 1:200 for analysis. IGF-I concentrations are the measured by RIA using a polyclonal rabbit antibody (Nicohls Institute, San Juan Capistrano, Calif.). The assay standards are created with recombinant human IGF-I (Amersham International, Bucks, UK).

Compound	serum IGF-I concentration (mean ± standard error) [µg/L]
CCc1c2c(nc3ccc(OC(=O)N4CCC(N5CCCCC5)CC4)cc13)-c1cc3c(c(=O)n1C2)COC(=O)[C@]3(O)CC [Irinotecan, (4S)-4,11-diethyl-4-hydroxy-9-((4-piperidinopiperidino)carbonyloxy)-1H-pyrano (3′,4′:6,7)indolizino(1,2-b)quinoline-3,14(4H,12H) dione hydrochloride]	129 ± 5.9
Pegvisomant	50 ± 5.3
